Measurements from the supplement of paper PMC10307832.

What was measured:
Experiment in all cases: relative viability (nuclei count vs DMSO), 5 days (fraction); higher = more cells survive
NCI-H1993 = test system: NCI-H1993
How it was run: (§1)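 Relative viability is defined as nuclei in treated wells over nuclei in vehicle wells. Duplicate plates were run and medians reported. Lung cancer cell lines in 1536-well plates were dosed by pin tool one day after seeding, with one drug or with a fixed anchor-drug dose plus five library-drug doses (not always all listed) in √10 steps, and nuclei were counted after 5 days.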

NCI-H1734 = test system: NCI-H1734
How it was run: as §1

HCC-827 = test system: HCC-827
How it was run: as §1

BEN = test system: BEN
How it was run: as §1

HCC-366 = test system: HCC-366
How it was run: as §1

NCI-H2009 = test system: NCI-H2009
How it was run: as §1

SK-MES-1 = test system: SK-MES-1
How it was run: as §1

NCI-H2405 = test system: NCI-H2405
How it was run: as §1

LOU-NH91 = test system: LOU-NH91
How it was run: as §1

HARA = test system: HARA
How it was run: as §1

NCI-H2087 = test system: NCI-H2087
How it was run: as §1

NCI-H1355 = test system: NCI-H1355
How it was run: as §1

NCI-H2170 = test system: NCI-H2170
How it was run: as §1

SK-LU-1 = test system: SK-LU-1
How it was run: as §1

NCI-H661 = test system: NCI-H661
How it was run: as §1

NCI-H1395 = test system: NCI-H1395
How it was run: as §1

NCI-H2342 = test system: NCI-H2342
How it was run: as §1

NCI-H647 = test system: NCI-H647
How it was run: as §1

NCI-H1792 = test system: NCI-H1792
How it was run: as §1

EKVX = test system: EKVX
How it was run: as §1

NCI-H1437 = test system: NCI-H1437
How it was run: as §1

NCI-H522 = test system: NCI-H522
How it was run: as §1

Compound: COc1nc(C)cnc1NS(=O)(=O)c1cccnc1-c1ccc(-c2nnco2)cc1 [Zibotentan] + Cc1nc(Nc2ncc(C(=O)Nc3c(C)cccc3Cl)s2)cc(N2CCN(CCO)CC2)n1 [Dasatinib] (partner 0.075 µM)
- relative viability (NCI-H1993; first compound 0.08 µM): 0.565
- relative viability (NCI-H1993; first compound 0.253 µM): 0.63
- relative viability (NCI-H1993; first compound 0.8 µM): 0.481
- relative viability (NCI-H1993; first compound 2.53 µM): 0.741
- relative viability (NCI-H1734; first compound 0.08 µM): 0.484
- relative viability (NCI-H1734; first compound 0.253 µM): 0.42
- relative viability (NCI-H1734; first compound 0.8 µM): 0.487
- relative viability (NCI-H1734; first compound 2.53 µM): 0.564
- relative viability (HCC-827; first compound 0.08 µM): 0.394
- relative viability (HCC-827; first compound 0.253 µM): 0.267
- relative viability (HCC-827; first compound 0.8 µM): 0.247
- relative viability (HCC-827; first compound 2.53 µM): 0.384
- relative viability (BEN; first compound 0.08 µM): 0.289
- relative viability (BEN; first compound 0.253 µM): 0.32
- relative viability (BEN; first compound 0.8 µM): 0.316
- relative viability (BEN; first compound 2.53 µM): 0.353
- relative viability (HCC-366; first compound 0.08 µM): 0.73
- relative viability (HCC-366; first compound 0.253 µM): 0.584
- relative viability (HCC-366; first compound 0.8 µM): 0.359
- relative viability (HCC-366; first compound 2.53 µM): 0.652
- relative viability (NCI-H2009; first compound 0.08 µM): 0.287
- relative viability (NCI-H2009; first compound 0.253 µM): 0.28
- relative viability (NCI-H2009; first compound 0.8 µM): 0.306
- relative viability (NCI-H2009; first compound 2.53 µM): 0.292
- relative viability (SK-MES-1; first compound 0.08 µM): 0.333
- relative viability (SK-MES-1; first compound 0.253 µM): 0.261
- relative viability (SK-MES-1; first compound 0.8 µM): 0.473
- relative viability (SK-MES-1; first compound 2.53 µM): 0.363
- relative viability (NCI-H2405; first compound 0.08 µM): 0.238
- relative viability (NCI-H2405; first compound 0.253 µM): 0.193
- relative viability (NCI-H2405; first compound 0.8 µM): 0.218
- relative viability (NCI-H2405; first compound 2.53 µM): 0.212
- relative viability (LOU-NH91; first compound 0.08 µM): 0.577
- relative viability (LOU-NH91; first compound 0.253 µM): 0.485
- relative viability (LOU-NH91; first compound 0.8 µM): 0.539
- relative viability (LOU-NH91; first compound 2.53 µM): 0.577
- relative viability (HARA; first compound 0.08 µM): 0.239
- relative viability (HARA; first compound 0.253 µM): 0.227
- relative viability (HARA; first compound 0.8 µM): 0.24
- relative viability (HARA; first compound 2.53 µM): 0.243
- relative viability (NCI-H2087; first compound 0.08 µM): 0.851
- relative viability (NCI-H2087; first compound 0.253 µM): 0.573
- relative viability (NCI-H2087; first compound 0.8 µM): 0.923
- relative viability (NCI-H2087; first compound 2.53 µM): 0.814
- relative viability (NCI-H1355; first compound 0.08 µM): 0.691
- relative viability (NCI-H1355; first compound 0.253 µM): 0.743
- relative viability (NCI-H1355; first compound 0.8 µM): 0.718
- relative viability (NCI-H1355; first compound 2.53 µM): 0.832
- relative viability (NCI-H2170; first compound 0.08 µM): 0.59
- relative viability (NCI-H2170; first compound 0.253 µM): 0.612
- relative viability (NCI-H2170; first compound 0.8 µM): 0.52
- relative viability (NCI-H2170; first compound 2.53 µM): 0.469
- relative viability (SK-LU-1; first compound 0.08 µM): 0.17
- relative viability (SK-LU-1; first compound 0.253 µM): 0.172
- relative viability (SK-LU-1; first compound 0.8 µM): 0.189
- relative viability (SK-LU-1; first compound 2.53 µM): 0.198
- relative viability (NCI-H661; first compound 0.08 µM): 0.924
- relative viability (NCI-H661; first compound 0.253 µM): 0.805
- relative viability (NCI-H661; first compound 0.8 µM): 0.943
- relative viability (NCI-H661; first compound 2.53 µM): 0.939
- relative viability (NCI-H1395; first compound 0.08 µM): 0.409
- relative viability (NCI-H1395; first compound 0.253 µM): 0.403
- relative viability (NCI-H1395; first compound 0.8 µM): 0.409
- relative viability (NCI-H1395; first compound 2.53 µM): 0.407
- relative viability (NCI-H2342; first compound 0.08 µM): 0.354
- relative viability (NCI-H2342; first compound 0.253 µM): 0.308
- relative viability (NCI-H2342; first compound 0.8 µM): 0.309
- relative viability (NCI-H2342; first compound 2.53 µM): 0.314
- relative viability (NCI-H647; first compound 0.08 µM): 0.145
- relative viability (NCI-H647; first compound 0.253 µM): 0.185
- relative viability (NCI-H647; first compound 0.8 µM): 0.215
- relative viability (NCI-H647; first compound 2.53 µM): 0.195
- relative viability (NCI-H1792; first compound 0.08 µM): 0.872
- relative viability (NCI-H1792; first compound 0.253 µM): 0.664
- relative viability (NCI-H1792; first compound 0.8 µM): 0.635
- relative viability (NCI-H1792; first compound 2.53 µM): 0.827
- relative viability (EKVX; first compound 0.08 µM): 0.612
- relative viability (EKVX; first compound 0.253 µM): 0.529
- relative viability (EKVX; first compound 0.8 µM): 0.392
- relative viability (EKVX; first compound 2.53 µM): 0.572
- relative viability (NCI-H1437; first compound 0.08 µM): 0.408
- relative viability (NCI-H1437; first compound 0.253 µM): 0.292
- relative viability (NCI-H1437; first compound 0.8 µM): 0.283
- relative viability (NCI-H1437; first compound 2.53 µM): 0.428
- relative viability (NCI-H522; first compound 0.08 µM): 0.479
- relative viability (NCI-H522; first compound 0.253 µM): 0.839
- relative viability (NCI-H522; first compound 0.8 µM): 0.974
- relative viability (NCI-H522; first compound 2.53 µM): 0.964
